Data on one compound can be found in US8759318B2, “Phosphoramidate derivatives of guanosine nucleoside compounds for treatment of viral infections” (Inhibitex, Inc., priority 2009, dated 2014).

The subject of data set [1] is HSV-1 strain HF. The data set can be described thus: Cytoprotection assay, HSV-1. Format: cell-based. The following applies: Human alphaherpesvirus 1, Vero.
Data set [2] can be described thus: Protide stability in normal plasma, cynomolgous monkey. Format: in vitro ADME. Particulars: 37° C. As to the method: (§1) Selected nucleoside 5′-phosphoramidates were examined for stability in human, cynomolgous monkey, rat and mouse plasma at 37° C. at both 30 min and 90 min time points.
(§2) Protide Stability in Normal Plasma: Plasma samples were prepared for analysis as follows. 50 μl of each test sample were distributed a 96-well V-bottom plate. 200 μl of acetonitrile containing 10 ng/ml of an internal standard was added to each plasma sample. The precipitated samples were centrifuged at 2500 rpm, 4° C. for 20 minutes in a Sorvall RT6000S centrifuge (Thermo Scientific, Waltham Mass.) and 100 μl of supernatant from each sample was transferred into a 96 deep well plate followed by the addition of 100 μl H2O to each sample. Samples were covered, mixed well by vortexing and maintained at 2-8° C. before and during analysis. 15 μl of each test sample was analyzed for protide concentrations by liquid chromatography coupled to tandem mass spectrometry (LC-MS/MS). Liquid chromatography was performed with an Agilent 1100 Series HPLC system equipped with a Synergi 4 μm Polar-RP, 30×2.0 mm column (Phenomenex, Torrance, Calif.). The HPLC system was coupled to an API 4000 triple quadrupole mass spectrometer (Applied Biosystems, Framingham, Mass.). Mass spectrometry was performed in positive ion mode and data was analyzed using Analyst® v1.4.2 software (Applied Biosystems, Framingham, Mass.). Data was presented as the percentage of compound recovered as compared to the 0 time point control.

Data set [3] is described as follows: Compound cytotoxicity in cytoprotection assay (MTS), MRC-5. Particulars: human, MRC-5 cells.
For data set [4], the system named is Influenza B strain Lee. The data set can be described thus: Cytoprotection assay, Influenza B. Particulars: Influenza B virus, MDCK. Format: cell-based.
The subject of data set [5] is Bovine Viral Diarrhea Virus (BVDV) strain NADL. The data set can be described thus: Cytoprotection assay, BVDV. In kind it is cell-based. The following applies: Bovine viral diarrhea virus isolates and strains, MDBK.
Data set [6] is described as follows: Cytotoxicity evaluation of the HCMV plaque reduction assay. Format: cell-based. Particulars: human, MRC-5 cells; MRC-5, HCMV AD169 assay. As to the method:
MRC-5 cells ((ATCC CCL-171) embryonal lung fibroblast, diploid, human) were used in plaque reduction assays with HCMV Strain AD169 (ATCC VR-538) and in cytoprotection assays with Rhinovirus strain 1B. They were grown in EMEM supplemented with 10% FBS, 0.1 mM non-essential amino acids, 1.0 mM sodium pyruvate, 2.0 mM L-Glutamine, 100 units/ml Penicillin and 100 μg/ml Streptomycin.
HCMV Plaque Reduction Assay: MRC-5 cells were seeded at 75,000 cells/well in 24 well plates. The plates were incubated overnight at 37° C. and 5% CO2. The following day, media was aspirated and approximately 100 plaque forming units (pfu) of HCMV AD169 was added to 21 wells of each plate in a volume of 200 μL of assay medium (MRC-5 growth medium containing 2% FBS rather than 10% FBS). The remaining three wells of each plate served as cellular control wells and received 200 μL of assay medium without virus. […] After a six day incubation period, cell viability was determined using CellTiter 96 Aqueous One Solution (Promega Corporation). […] Adhesive plate sealers were used in place of the lids, the sealed plates were inverted several times to mix the soluble formazan product and the plate was read spectrophotometrically at 490 and 650 nm with a Molecular Devices Vmax plate reader. […] A therapeutic (selectivity) index (TI) for each active compound was determined by dividing the TC50 by the IC50.
Background: Plaque reduction counts the foci of infection that form in a cell layer.

Data set [7] concerns RSV strain Long. The data set can be described thus: Cytoprotection assay, RSV. Format: cell-based. Particulars: human respiratory syncytial virus, Vero.
Data set [8] in a line: in vitro. Particulars: dog.
Data set [9] can be described thus: Protide stability in normal plasma, human. In kind it is in vitro ADME. Particulars: 37° C. How it is done: as §1, §2
The test system of data set [10] is MDCK cells. The following applies: Influenza B assay.
Data set [11] has as its system Poliovirus strain Chat. The data set can be described thus: microbe, parasite or virus in culture. In kind it is cell-based, Poliovirus I. The following applies: Enterovirus C, Vero.
Data set [12] concerns West Nile virus strain NY-99. The data set can be described thus: Cytoprotection assay, West Nile virus. Format: cell-based. Particulars: West Nile Virus NY-99, Vero.

The term EC50 denotes the concentration that produces a half-maximal response.

Consider `COc1nc(N)nc2c1ncn2C1O[C@H](COP(=O)(N[C@@H](C)C(=O)OCC(C)(C)C)Oc2cccc3ccccc23)[C@@H](O)[C@@]1(C)O` (some centres unmarked) [Example 20], for which the EC50 in data set [1] is greater than 10 µM; in [4] it was greater than 10 µM; in data set [5], 0.748 µM; in data set [7], greater than 10 µM; in [11] it was 4.71 µM; in data set [12] it was 1.69 µM. For the same compound, the “% Compound Remaining Compared to %100 Acetonitrile Control” value in [2] (30 min) is 97.0%; in data set [2] (1.5 h), 94.0%; in data set [9] (30 min), 94.0%; in data set [9] (1.5 h) it was 101.5%. This compound also returned a CC50 at 7 days in data set [3] of 3.08 µM. In [6], the CC50 at 6 days was found to be 1.57 µM. For the same compound, the CC50 in [8] and in data set [10] was greater than 10 µM throughout.
